Measured values taken from patent publication US11767298B2, “Substituted benzimidazoles as inhibitors of transforming growth factor-β kinase” (Duke University, priority 2016, dated 2023).
Entries after “also recorded” stand apart in the source; their conditions may differ. Where two headings read alike, the source gives them in different places.

Assays:
P. berghei = assay: Liver stage parasite load, luciferase-expressing P. berghei in Huh7 cells; format: cell-based, Plasmodium berghei ANKA; conditions: Huh7 host cells, read-out: IC50 Liver state (Huh7)
Method: Cell-based anti-Plasmodium assays. For liver stage assays, 15,000 HepG2 or 8,000 Huh7 cells/well were added to 384-well microtiter plates using a multichannel pipette (Rainin). After 2 hours at 37° C., compounds (0-100 μM) were added to cells in duplicate or triplicate in a final concentration of 1% DMSO. DMSO was used as the negative control. Following compound incubation at 37° C. for ˜1 hr, harvested luciferase-expressing P. berghei ANKA sporozoites were added to the plates at a density of 3,000 sporozoites/well. P. berghei ANKA sporozoites were obtained from harvesting the salivary glands of infected A. stephensi mosquitoes. The plates were spun for 10 min at 1,000 rpm, and then incubated at 37° C. for ˜45 hrs. […] After ˜45 hours at 37° C., liver cell viability was assessed using CellTiter-Fluor (Promega) and then parasite load was determined using Bright-Glo (Promega). The relative fluorescence and luminescence signal intensity of each well was evaluated with an EnVision System. The luminescence signal in the presence of compounds was normalized to the negative control (DMSO). Dose-response analysis was performed with GraphPad Prism to yield the reported EC50 values.
Specifically, their ability to inhibit P. berghei infection in two human hepatoma cell lines (HepG2 and Huh7) as well as cytotoxicity against HepG2 and Huh7 cells was determined as described above. Liver cell cytotoxicity was evaluated with two different commercially available assays, one that tests for intracellular protease activity with a fluorescence reporter and another that relies on the luminescent detection of total ATP.

[1] = tested on: TAK1 downstream signaling (IKK, p38) in MDA-MB-231 cells; assay: TNFα dependent signaling in MDA-MB-231 cells; format: cell-based; conditions: 10 μM, 2 h pretreatment, TNFα stimulation
Method: In order to investigate the effects of HS-206 on cellular signaling, MDA-MB-231 and Hela cells were pretreated with 10 μM HS-206 for 2 h and stimulated with TNFα (FIG. 8).

IRAK1 = IRAK1 (Homo sapiens, UniProt P51617); assay: Kinase profiling (Dundee), IRAK1; format: biochemical
IRAK1, sequence (P51617 whole entry): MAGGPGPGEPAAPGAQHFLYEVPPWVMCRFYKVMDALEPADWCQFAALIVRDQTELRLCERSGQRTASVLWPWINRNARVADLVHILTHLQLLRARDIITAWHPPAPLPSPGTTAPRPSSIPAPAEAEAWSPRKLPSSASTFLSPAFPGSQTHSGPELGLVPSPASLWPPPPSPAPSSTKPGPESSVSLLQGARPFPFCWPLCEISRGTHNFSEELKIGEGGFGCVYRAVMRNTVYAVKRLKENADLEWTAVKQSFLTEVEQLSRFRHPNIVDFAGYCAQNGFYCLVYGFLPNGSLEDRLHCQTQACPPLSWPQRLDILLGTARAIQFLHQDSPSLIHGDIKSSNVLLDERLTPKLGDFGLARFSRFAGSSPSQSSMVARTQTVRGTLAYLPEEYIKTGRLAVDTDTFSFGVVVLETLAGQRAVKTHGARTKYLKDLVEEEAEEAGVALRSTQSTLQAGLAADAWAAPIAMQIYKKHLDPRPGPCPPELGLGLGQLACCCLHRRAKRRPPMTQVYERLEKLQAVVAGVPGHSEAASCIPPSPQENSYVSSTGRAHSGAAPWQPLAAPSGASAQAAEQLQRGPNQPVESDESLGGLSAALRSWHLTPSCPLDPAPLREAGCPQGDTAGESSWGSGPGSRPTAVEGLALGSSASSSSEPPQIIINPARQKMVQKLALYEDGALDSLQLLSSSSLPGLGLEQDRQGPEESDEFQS
Method: Kinase selectivity profiling. The selectivity profile of HS-206 to inhibit mammalian kinases was tested against a panel of 140 kinases at a single concentration of 10 μM. Tests were performed using a radiolabeld (^33P-ATP) filter-binding assay at the International Centre for Kinase Profiling at the University of Dundee, UK (http://www.kinase-screen.mrc.ac.uk/).
This panel contains members of all major kinase families, including tyrosine kinases (TK), tyrosine kinase-like (TKL), sterile serine/threonine (STE), and CDK/MAPK/GSK/CLK (CMGC). […] For these kinases, IC50 values were determined (Table 1).

60 cell lines (NCI-60) = assay: NCI-60 Cell One-Dose Screen; format: cell-based; conditions: 10 μM, 24 h
Method: In order to examine the effect of HS-206 on cell viability of different cancers, a screen of 60 cell lines was performed at the NCI, called the NCI-60 Cell One-Dose Screen. […] This screen determined growth inhibition as an effect of HS-206 treatment over a period of 24 h.

CCCn1c(NC(=O)c2cccc(C(N)=O)c2)nc2ccccc21 [HS-206 (1), (E)-N-(1-Propyl-1,3-dihydro-2H-benzo[d]imidazol-2-ylidene)isophthalamide]
IC50 (P. berghei; Plasmodium berghei, Huh-7, parasite load): ~7 µM
IC50 (P. berghei; parasite load): 7.3 µM
TNFα dependent signaling (activation of IKK and p38) [1]: inhibited activation of IKK and p38; also recorded: inhibits TNFα dependent signaling
IC50 (IRAK1): 0.39 ± 0.05 µM
inhibition at 10 µM (IRAK1; 10 μM): > 90%
growth inhibition, one-dose screen (60 cell lines (NCI-60); colorectal (KM12), leukemia (HL-60), non-small cell lung cancer (NCI-H522)): most affected
growth inhibition, one-dose screen (60 cell lines (NCI-60); melanoma (M14), renal (786-0), ovarian cancer (Ovcar-3)): little effect
